Reference: US11547694B2, “CXCR4/CXCR7 blockade and treatment of human papilloma virus-associated disease” (priority 2017, dated 2023)

Assays:
[1] = tested on: TC-1 tumor cells; format: in vivo; conditions: C57BL/6 mice with s.c. TC-1 tumors
Description: Methods. C57BL/6 mice were inoculated with 1×10^5 TC-1 tumor cells subcutaneously into the right flank. When tumors reached approximately 60-70 mm^3 in size, various treatments were initiated. The treatment groups (N=5) consisted of no treatment, administration of an isotype control IgG antibody (clone 2A3, BioXcell), anti-PD-1 monotherapy (clone 29F.1A12, BioXcell), AMD3100 monotherapy (catalog AB120718, AbCam), combination of AMD3100 and anti-PD-1 and combination of AMD3100, anti-PD-1, and an HPV vaccine (See, FIGS. 1, 2, 3, and 4).
The treatment regimen consisted of administration of 0.5 mg/mouse of anti-PD-1 antibody (clone 29F.1A12, BioXcell) or isotype control antibody (clone 2A3, BioXcell) every 5 days for a total of 3 treatments. Prior to each dose of antibody, the mice were treated with 3 mg/kg of AMD3100 (catalog AB120718, AbCam). In addition, a subset of mice were treated with a 1:1 ratio of 20 mcg of HPV E7 peptide vaccine and 20 mcg of poly I:C adjuvant in a total volume of 20 μl, which was administered intratumorally. The tumors were measured twice a week with calipers. When the tumor measured over 2 centimeters in any one direction, the animal was sacrificed according to IACUC policy.

[2] = tested on: ovarian preclinical cancer model
[3] = biological target: CXCR4 (Homo sapiens, UniProt P61073); conditions: cited from earlier work
[4] = 0.01-0.02 mg/kg subcutaneously twice daily for 6 months; phase I clinical trial (Blood 2014; 123(15):2308-16); cited from earlier work
[5] = tested on: mature leukocytes; conditions: administration of AMD3100; cited from earlier work

Sequence of CXCR4 (P61073 whole entry): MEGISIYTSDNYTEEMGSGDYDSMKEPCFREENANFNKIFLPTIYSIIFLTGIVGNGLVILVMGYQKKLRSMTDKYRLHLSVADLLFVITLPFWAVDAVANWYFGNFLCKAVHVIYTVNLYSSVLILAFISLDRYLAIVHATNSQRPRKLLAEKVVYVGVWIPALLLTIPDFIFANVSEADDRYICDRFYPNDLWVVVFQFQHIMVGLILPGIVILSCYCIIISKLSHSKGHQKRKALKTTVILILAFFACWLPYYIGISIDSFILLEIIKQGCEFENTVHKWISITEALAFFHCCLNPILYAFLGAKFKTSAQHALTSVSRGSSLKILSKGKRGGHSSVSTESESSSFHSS

In the case of `c1cc(CN2CCCNCCNCCCNCC2)ccc1CN1CCCNCCNCCCNCC1` [AMD3100], the “anti-tumor effect (tumor growth, FIG. 1, FIG. 3)” value ([1]; AMD3100 3 mg/kg before each antibody dose, anti-PD-1 0.5 mg/mouse every 5 days x3, HPV E7 peptide vaccine intratumorally, caliper tumor volume) is reported as “enhanced anti-tumor effect”, the “survival (FIG. 2, FIG. 4)” value ([1]; same regimen, Log-rank test) is reported as “prolonged survival” and the “CD8+ T cells” value [2] is reported as “increase”. The Treg infiltration [2] was “decrease”, the anti-tumor effect [2] was “enhanced anti-tumor effect” and the “antagonism of CXCR4” value [3] was “highly specific antagonist of CXCR4”. For the same compound, the “safety of long-term, low-dose treatment” value [4] was “demonstrated the safety” and the “mobilization of leukocytes into the blood” value [5] was “rapidly mobilize all major subsets of mature leukocytes into the blood”.
